Assay results as given in ChEMBL document CHEMBL1268953, “Discovery of novel 2-aryl-4-benzoyl-imidazoles targeting the colchicines binding site in tubulin as potential anticancer agents” (J Med Chem, 2010).

Tested on: not listed separately
Assay: Cytotoxicity against human WM164 cells after 48 hrs by sulforhodamine B assay
Format: functional, cell-based
Settings: Homo sapiens, WM164, 48 h

Row | Compound | IC50 [nM]
1 | COc1cc(C(=O)c2c[nH]c(-c3cc(OC)c(OC)c(OC)c3)n2)cc(OC)c1OC | > 10000
2 | COc1cc(-c2nc(C(=O)c3ccc(F)cc3)c[nH]2)cc(OC)c1OC | > 10000
3 | O=C(c1cc(O)c(O)c(O)c1)c1c[nH]c(-c2ccc(Cl)cc2)n1 | 2100
4 | CN(C)c1ccc(-c2nc(C(=O)c3ccc(F)cc3)c[nH]2)cc1 | 62
5 | COc1ccc(-c2nc(C(=O)c3cc(OC)c(OC)c(OC)c3)c[nH]2)cc1OC | 191

Same assay, conditions: wm164

Row | Compound | IC50 [nM]
6 | Cc1ccc(-c2nc(C(=O)c3ccc(F)cc3)c[nH]2)cc1 | 112

Tested on: PC-3
Assay: cells
Settings: Homo sapiens, PC-3, 48 h
Description: Cytotoxicity against human PC3 cells after 48 hrs by sulforhodamine B assay

Row | Compound | IC50 [nM]
7 | O=C(c1ccc(F)cc1)c1c[nH]c(-c2ccccc2)n1 | 2100
8 | COc1cc(C(=O)c2c[nH]c(-c3ccc(C(F)(F)F)cc3)n2)cc(OC)c1OC | 127
9 | COc1cc(OC)cc(C(=O)c2c[nH]c(-c3ccccc3)n2)c1 | 3200
10 | COc1ccc(-c2nc(C(=O)c3cc(OC)c(OC)c(OC)c3)c[nH]2)cc1 | 45
11 | COc1cc(C(=O)c2c[nH]c(-c3cc(OC)c(OC)c(OC)c3)n2)cc(OC)c1OC | > 10000
12 | COc1cc(-c2nc(C(=O)c3ccc(F)cc3)c[nH]2)cc(OC)c1OC | > 10000
13 | COc1cc(C(=O)c2c[nH]c(-c3ccc(Cl)cc3)n2)cc(OC)c1OC | 35
14 | O=C(c1cc(O)c(O)c(O)c1)c1c[nH]c(-c2ccc(Cl)cc2)n1 | 10000
15 | CN(C)c1ccc(-c2nc(C(=O)c3ccc(F)cc3)c[nH]2)cc1 | 81

Tested on: A-375
Assay: Cytotoxicity against human A375 cells after 48 hrs by sulforhodamine B assay
Format: functional, cell-based
Settings: Homo sapiens, A-375, 48 h

Row | Compound | IC50 [nM]
16 | COc1cc(C(=O)c2c[nH]c(-c3ccc(C(F)(F)F)cc3)n2)cc(OC)c1OC | 163
17 | COc1cc(OC)cc(C(=O)c2c[nH]c(-c3ccccc3)n2)c1 | 2800
18 | COc1cc(C(=O)c2c[nH]c(-c3cc(OC)c(OC)c(OC)c3)n2)cc(OC)c1OC | 4800
19 | COc1cc(-c2nc(C(=O)c3ccc(F)cc3)c[nH]2)cc(OC)c1OC | > 10000
20 | COc1cc(C(=O)c2c[nH]c(-c3ccc(Cl)cc3)n2)cc(OC)c1OC | 43
21 | O=C(c1cc(O)c(O)c(O)c1)c1c[nH]c(-c2ccc(Cl)cc2)n1 | 3900

Same assay, conditions: a-375

Row | Compound | IC50 [nM]
22 | Cc1ccc(-c2nc(C(=O)c3ccc(F)cc3)c[nH]2)cc1 | 108

Tested on: DU-145
Assay: cells
Settings: Homo sapiens, DU-145, 48 h
Description: Cytotoxicity against human DU145 cells after 48 hrs by sulforhodamine B assay

Row | Compound | IC50 [nM]
23 | O=C(c1ccc(F)cc1)c1c[nH]c(-c2ccccc2)n1 | 850
24 | COc1cc(C(=O)c2c[nH]c(-c3ccc(C(F)(F)F)cc3)n2)cc(OC)c1OC | 174
25 | COc1cc(OC)cc(C(=O)c2c[nH]c(-c3ccccc3)n2)c1 | 2600
26 | COc1ccc(-c2nc(C(=O)c3cc(OC)c(OC)c(OC)c3)c[nH]2)cc1 | 48
27 | COc1cc(C(=O)c2c[nH]c(-c3cc(OC)c(OC)c(OC)c3)n2)cc(OC)c1OC | > 10000
28 | COc1cc(-c2nc(C(=O)c3ccc(F)cc3)c[nH]2)cc(OC)c1OC | > 10000
29 | COc1cc(C(=O)c2c[nH]c(-c3ccc(Cl)cc3)n2)cc(OC)c1OC | 36
30 | O=C(c1cc(O)c(O)c(O)c1)c1c[nH]c(-c2ccc(Cl)cc2)n1 | 10000

Tested on: not listed separately
Assay: Cytotoxicity against mouse B16-F1 cells after 48 hrs by sulforhodamine B assay
Format: functional, cell-based
Settings: Mus musculus, B16-F1, 48 h

Row | Compound | IC50 [nM]
31 | O=C(c1ccc(F)cc1)c1c[nH]c(-c2ccccc2)n1 | 930
32 | COc1cc(C(=O)c2c[nH]c(-c3ccc(C(F)(F)F)cc3)n2)cc(OC)c1OC | 468
33 | COc1cc(OC)cc(C(=O)c2c[nH]c(-c3ccccc3)n2)c1 | 5400
34 | COc1ccc(-c2nc(C(=O)c3cc(OC)c(OC)c(OC)c3)c[nH]2)cc1 | 108
35 | COc1cc(C(=O)c2c[nH]c(-c3cc(OC)c(OC)c(OC)c3)n2)cc(OC)c1OC | > 10000
36 | COc1cc(-c2nc(C(=O)c3ccc(F)cc3)c[nH]2)cc(OC)c1OC | > 10000
37 | COc1cc(C(=O)c2c[nH]c(-c3ccc(Cl)cc3)n2)cc(OC)c1OC | 168
38 | O=C(c1cc(O)c(O)c(O)c1)c1c[nH]c(-c2ccc(Cl)cc2)n1 | 1810
39 | COc1ccc(-c2nc(C(=O)c3cc(OC)c(OC)c(OC)c3)c[nH]2)cc1OC | 1400

Same assay, conditions: b16-f1

Row | Compound | IC50 [nM]
40 | Cc1ccc(-c2nc(C(=O)c3ccc(F)cc3)c[nH]2)cc1 | 297

Tested on: LNCaP
Assay: Cytotoxicity against human LNCAP cells after 48 hrs by sulforhodamine B assay
Format: functional, cell-based
Settings: not given

Row | Compound | IC50 [nM]
41 | O=C(c1ccc(F)cc1)c1c[nH]c(-c2ccccc2)n1 | 610
42 | COc1cc(C(=O)c2c[nH]c(-c3ccc(C(F)(F)F)cc3)n2)cc(OC)c1OC | 134
43 | COc1cc(OC)cc(C(=O)c2c[nH]c(-c3ccccc3)n2)c1 | 3600
44 | COc1ccc(-c2nc(C(=O)c3cc(OC)c(OC)c(OC)c3)c[nH]2)cc1 | 31
45 | COc1cc(C(=O)c2c[nH]c(-c3cc(OC)c(OC)c(OC)c3)n2)cc(OC)c1OC | > 10000
46 | COc1cc(-c2nc(C(=O)c3ccc(F)cc3)c[nH]2)cc(OC)c1OC | > 10000
47 | COc1cc(C(=O)c2c[nH]c(-c3ccc(Cl)cc3)n2)cc(OC)c1OC | 24
48 | O=C(c1cc(O)c(O)c(O)c1)c1c[nH]c(-c2ccc(Cl)cc2)n1 | 10000
49 | CN(C)c1ccc(-c2nc(C(=O)c3ccc(F)cc3)c[nH]2)cc1 | 57

Tested on: PPC-1
Assay: Cytotoxicity against human PPC1 cells after 48 hrs by sulforhodamine B assay
Format: functional, cell-based
Settings: Homo sapiens, PPC-1, 48 h

Row | Compound | IC50 [nM]
50 | O=C(c1ccc(F)cc1)c1c[nH]c(-c2ccccc2)n1 | 570
51 | COc1cc(C(=O)c2c[nH]c(-c3ccc(C(F)(F)F)cc3)n2)cc(OC)c1OC | 110
52 | COc1cc(OC)cc(C(=O)c2c[nH]c(-c3ccccc3)n2)c1 | 2100
53 | COc1ccc(-c2nc(C(=O)c3cc(OC)c(OC)c(OC)c3)c[nH]2)cc1 | 34
54 | COc1cc(C(=O)c2c[nH]c(-c3cc(OC)c(OC)c(OC)c3)n2)cc(OC)c1OC | > 10000
55 | COc1cc(-c2nc(C(=O)c3ccc(F)cc3)c[nH]2)cc(OC)c1OC | > 10000
56 | COc1cc(C(=O)c2c[nH]c(-c3ccc(Cl)cc3)n2)cc(OC)c1OC | 26
57 | O=C(c1cc(O)c(O)c(O)c1)c1c[nH]c(-c2ccc(Cl)cc2)n1 | > 10000
58 | CN(C)c1ccc(-c2nc(C(=O)c3ccc(F)cc3)c[nH]2)cc1 | 45
